Patent US7659270B2, “Hepatitis C virus inhibitors” (Bristol-Myers Squibb Company, priority 2006, dated 2010)
pEC50: −log10 of the molar value.

What follows are molecules tested on HCV 1b-377-neo replicon cells (assay: HCV replicon assay (HCV 1b-377-neo replicon cells)). Conditions: Hepatitis C virus, read-out: EC50 range against HCV 1b (Range).
Type: cell-based, Hepatitis C virus genotype 1b
Method in brief: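 HCV genotype 1b (1b-377-neo) replicon cells, run as a validated replicon assay; parallel testing in replicon cells carrying the NS5A Y2065H resistance mutation.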

First: COC(=O)N[C@@H](C(=O)N[C@@H](C)c1ncc(-c2ccc(-c3ccc(-c4cnc([C@@H]5CCCN5C(=O)[C@H](NC(=O)OC)c5ccccc5)[nH]4)nn3)cc2)[nH]1)c1ccccc1 [Example 152j-14, methyl ((1R)-2-((2S)-2-(5-(6-(4-(2-((1S)-1-(((2R)-2-((methoxycarbonyl)a-mino)-2-phenyl-acetyl)amino)eth-yl)-1H-imidazol-5-yl)phenyl)-3-pyridazinyl)-1H-imidazol-2-yl)-1-pyrrolidinyl)-2-oxo-1-phenylethyl)carbamate]
Second: COC(=O)N[C@@H](C(=O)N[C@@H](C)c1ncc(-c2cnc(-c3ccc(-c4cnc([C@@H]5CCCN5C(=O)[C@H](NC(=O)OC)c5ccccc5)[nH]4)cc3)cn2)[nH]1)c1ccccc1 [Example 152j-19, methyl ((1R)-2-((2S)-2-(5-(4-(5-(2-((1S)-1-(((2R)-2-((methoxycarbonyl)a-mino)-2-phenyl-acetyl)amino)eth-yl)-1H-imidazol-5-yl)-2-pyrazinyl)phenyl)-1H-imidazol-2-yl)-1-pyrrolidinyl)-2-oxo-1-phenylethyl)carbamate]
The pEC50 of the first is lower: 7.00 to 9.00 for the first, 9.00 to 11.00 for the second. The second is the more potent here.

`COC(=O)N[C@@H](C(=O)N[C@@H](C)c1ncc(-c2ccc(-c3ncc(-c4cnc([C@@H]5CCCN5C(=O)[C@H](NC(=O)OC)c5ccccc5)[nH]4)cn3)cc2)[nH]1)c1ccccc1` [Example 152j-15, methyl ((1R)-2-((2S)-2-(5-(2-(4-(2-((1S)-1-(((2R)-2-((methoxycarbonyl)a-mino)-2-phenyl-acetyl)amino)eth-yl)-1H-imidazol-5-yl)phenyl)-5-pyrimidinyl)-1H-imidazol-2-yl)-1-pyrrolidinyl)-2-oxo-1-phenylethyl)carbamate] and `COC(=O)N[C@@H](C(=O)N[C@@H](C)c1ncc(-c2cnc(-c3ccc(-c4cnc([C@@H]5CCCN5C(=O)[C@H](NC(=O)OC)c5ccccc5)[nH]4)cc3)nc2)[nH]1)c1ccccc1` [Example 152j-17, methyl ((1R)-2-((2S)-2-(5-(4-(5-(2-((1S)-1-(((2R)-2-((methoxycarbonyl)a-mino)-2-phenyl-acetyl)amino)eth-yl)-1H-imidazol-5-yl)-2-pyrimidinyl)phenyl)-1H-imidazol-2-yl)-1-pyrrolidinyl)-2-oxo-1-phenylethyl)carba-mate] fall in the same range of pEC50: 9.00 to 11.00 for the first, 9.00 to 11.00 for the second.

Compared with `C[C@H](NC(=O)[C@@H](c1ccccc1)N(C)C)c1ncc(-c2cnc(-c3ccc(-c4cnc([C@@H]5CCCN5C(=O)[C@@H](c5ccccc5)N(C)C)[nH]4)cc3)nc2)[nH]1` [Example 152j-16, (2R)-2-(dimethylamino)-N-((1S)-1-(5-(2-(4-(2-((2S)-1-((2R)-2-(dimethylamino)-2-phenylacetyl)-2-pyrrolidinyl)-1H-imidazol-5-yl)phenyl)-5-pyrimidinyl)-1H-imidazol-2-yl)ethyl)-2-phenylacetamide], `C[C@@H](c1ncc(-c2ccc(-c3ncc(-c4cnc([C@@H]5CCCN5C(=O)[C@@H](c5ccccc5)N(C)C)[nH]4)cn3)cc2)[nH]1)N(C)C(=O)[C@@H](c1ccccc1)N(C)C` [Example 152j-20, (2R)-2-(dimethylamino)-N-((1S)-1-(5-(4-(5-(2-((2S)-1-((2R)-2-(dimethylamino)-2-phenylacetyl)-2-pyrrolidinyl)-1H-imidazol-5-yl)-2-pyrimidinyl)phenyl)-1H-imidazol-2-yl)ethyl)-N-methyl-2-phenylacetamide] is lower in pEC50: 9.00 to 11.00 for the first, 7.00 to 9.00 for the second.

`C[C@H](NC(=O)[C@@H](c1ccccc1)N(C)C)c1ncc(-c2cnc(-c3ccc(-c4cnc([C@@H]5CCCN5C(=O)[C@@H](c5ccccc5)N(C)C)[nH]4)cc3)cn2)[nH]1` [Example 152j-18, (2R)-2-(dimethylamino)-N-((1S)-1-(5-(5-(4-(2-((2S)-1-((2R)-2-(dimethylamino)-2-phenylacetyl)-2-pyrrolidinyl)-1H-imidazol-5-yl)phenyl)-2-pyrazinyl)-1H-imidazol-2-yl)ethyl)-2-phenylacetamide] gave a pEC50 of 9.00 to 11.00.
